Article PMC7036801, “Synthesis of New Cisplatin Derivatives from Bile Acids” (Molecules, 2020)

How the values were obtained:
[1] = tested on: T-lymphoblastic leukemia (CEM); experiment: Cytotoxicity assay (Alamar Blue), CEM; assay type: cell-based, human; conditions: CEM cells, 72 h of treatment, in DMF
Method: (§1) All new platinum(II) complexes were screened for cytotoxic activity against following tumor cell lines: T-lymphoblastic leukemia (CEM), epithelial breast carcinoma (MCF7), and cervical carcinoma cell lines (HeLa) (Table 2). A control of cytotoxicity was done with normal human fibroblasts (BJ) and human umbilical vein endothelial cells (HUVEC). The cytotoxicity of all substances in BJ and HUVEC was very similar. […] Its sensitivity against HeLa cell line (7.0 µM) was better than that of cisplatin (11.4 µM). However, the toxicity of 23a against normal human cells (BJ and HUVEC) was similar to that of cisplatin. […] Taking into account lack of activity of cholic and hyodeoxycholic acids-based complexes at studied concentrations (against all tested cell lines IC50 > 50 µM) we can suppose that modifications of bile acids should be focused on the most lipophilic lithocholic acid derivatives. The results presented here provide an inspiration for further studies in this area.
(§2) Cisplatin derivatives were evaluated for their cytotoxic activities in vitro in following cell lines derived from various tumors: T-lymphoblastic leukemia (CEM), epithelial breast carcinoma (MCF7) and cervical carcinoma cell lines (HeLa) (all from ECACC, UK) and also in normal human fibroblasts (BJ; from ATCC, USA). Human umbilical vein endothelial cells (HUVEC) were a kind gift from Prof Jitka Ulrichová (Medical Faculty, Palacký University, Olomouc, Czech Republic). HUVEC were grown in ECPM medium (Provitro, Berlin, Germany). Six serial 3-fold dilutions in triplicate of each drug in DMF was administered in every cell line for 72 h. Alamar Blue dye was used for staining of living cells only. IC50 values (50% inhibitory concentrations) were calculated as the proportions of surviving cells. A detailed procedure for the cytotoxicity assay was described previously, except for using Alamar Blue dye instead of Calcein AM [37]. Briefly, the percentage of surviving cells in each well was calculated by dividing the intensity of the fluorescence signals from the exposed wells by the intensity of signals from control wells and multiplying by 100. These ratios were then used to construct dose–response curves, from which IC50 values, i.e., concentrations of the respective compounds that were lethal to 50% of the tumor cells, were calculated. The results obtained from cytotoxicity assays are shown in Table 2 (mean values ± SD obtained from three independent experiments performed in triplicate).

[2] = tested on: epithelial breast carcinoma (MCF7); experiment: Cytotoxicity assay (Alamar Blue), MCF7; assay type: cell-based, human; conditions: MCF7 cells, 72 h of treatment, in DMF
Method: as §1, §2

[3] = tested on: cervical carcinoma cell lines (HeLa); experiment: Cytotoxicity assay (Alamar Blue), HeLa; assay type: cell-based, human; conditions: HeLa cells, 72 h of treatment, in DMF
Method: as §1, §2

[4] = tested on: normal human fibroblasts (BJ); experiment: Cytotoxicity assay (Alamar Blue), BJ; assay type: cell-based; conditions: BJ cells, 72 h of treatment, in DMF
Method: as §1, §2

[5] = tested on: human umbilical vein endothelial cells (HUVEC); experiment: Cytotoxicity assay (Alamar Blue), HUVEC; assay type: cell-based; conditions: 72 h of treatment, in DMF
Method: as §1, §2

[6] = test done at temperature 37 °C due to solubility problems

| melting point | Compound | IC50 ([1]; mean ± S.D.) | IC50 ([2]; mean ± S.D.) | IC50 ([3]; mean ± S.D.) | IC50 ([4]; mean ± S.D.) | IC50 ([5]; mean ± S.D.) | other results |
| --- | --- | --- | --- | --- | --- | --- | --- |
|  | cis-Dichloro-24-[(N-2′-aminoeth-1′-yl-κN)aminocholane-3α,12α-diol-κN]platinum(II) [22b] | 37.1 ± 6.8 µM | 20.5 ± 3.1 µM | 35.5 ± 5.3 µM | 36.6 ± 5.1 µM | 38.2 ± 0.6 µM |  |
| 64 to 66 °C | C[C@H](CCCNCCCN)[C@H]1CC[C@H]2[C@@H]3CCC4C[C@H](O)CC[C@]4(C)[C@H]3C[C@H](O)[C@]12C (stereo partly drawn) |  |  |  |  |  |  |
|  | cis-Dichloro-24-[(N-3′-aminoprop-1′-yl-κN)aminocholane-3α,12α-diol-κN]platinum(II) [23b] | 31.6 ± 3.5 µM | 23.3 ± 4.7 µM | 36.2 ± 4.3 µM | 42.5 ± 3.2 µM | 34.4 ± 5.6 µM |  |
| 107 to 110 °C | C[C@H](CCCNCCN)[C@H]1CC[C@H]2[C@@H]3CCC4C[C@H](O)CC[C@]4(C)[C@H]3CC[C@]12C (stereo partly drawn) |  |  |  |  |  |  |
| 72 to 74 °C | C[C@H](CCCNCCN)[C@H]1CC[C@H]2[C@@H]3C[C@H](O)C4C[C@H](O)CC[C@]4(C)[C@H]3CC[C@]12C (stereo partly drawn) |  |  |  |  |  |  |
| 92 to 94 °C | C[C@H](CCCNCCCN)[C@H]1CC[C@H]2[C@@H]3CCC4C[C@H](O)CC[C@]4(C)[C@H]3CC[C@]12C (stereo partly drawn) |  |  |  |  |  |  |
|  | N.N.[Cl][Pt][Cl] [cisplatin] | 0.8 ± 0.1 µM | 7.7 ± 1.7 µM | 11.4 ± 3.8 µM | 6.9 ± 0.9 µM | 5.5 ± 1.1 µM |  |
| 70 to 72 °C | C[C@H](CCCNCCN)[C@H]1CC[C@H]2[C@@H]3CCC4C[C@H](O)CC[C@]4(C)[C@H]3C[C@H](O)[C@]12C (stereo partly drawn) |  |  |  |  |  |  |
|  | cis-Dichloro-24-[(N-2′-aminoeth-1′-yl-κN)aminocholan-3α-ol-κN]platinum(II) [22a] |  |  |  |  |  | IC50 [1, 6]: 40.2 ± 2.6 µM; IC50 [2, 6]: > 50 µM; IC50 [3, 6]: > 50 µM; IC50 [4, 6]: > 50 µM; IC50 [5, 6]: > 50 µM |
|  | cis-Dichloro-24-[(N-3′-aminoprop-1′-yl-κN)aminocholan-3α-ol-κN]platinum(II) [23a] | 3.6 ± 0.1 µM | 7 ± 0.5 µM | 7 ± 0.2 µM | 6.3 ± 0.8 µM | 6.9 ± 0.6 µM |  |
